This note sets out measurements from patent US20240368127A1, “HSD17B13 INHIBITORS AND USES THEREOF” (FL2022-001, Inc., priority 2021, published 2024).

This assay concerns the target T1, Recombinant human HSD17B13 enzyme (Homo sapiens, UniProt Q7Z5P4).
T1 sequence (Q7Z5P4 20-300): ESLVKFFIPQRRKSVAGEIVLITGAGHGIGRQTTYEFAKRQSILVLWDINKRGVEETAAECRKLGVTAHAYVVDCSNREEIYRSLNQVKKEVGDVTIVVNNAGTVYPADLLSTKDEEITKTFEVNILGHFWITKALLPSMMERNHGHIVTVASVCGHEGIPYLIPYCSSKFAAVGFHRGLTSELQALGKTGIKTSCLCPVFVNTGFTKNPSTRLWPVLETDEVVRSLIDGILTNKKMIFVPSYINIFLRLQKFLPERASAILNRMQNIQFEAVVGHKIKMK
The assay is described as follows: HSD17b13 NAD(P)H-Glo biochemical assay. Conditions: 50 μM estradiol, 1 mM NAD+, 37° C. for 3 hours; read-out: HSD17β13 IC50. Here is the method:
Example B-1: HSD17b13 NAD (P) H-Glo Biochemical Assay
Recombinant human HSD17B13 enzyme. Substrate: estradiol (Sigma β-Estradiol E8875), 100 mM in DMSO. Cofactor: NAD+ Grade I free acid (Sigma 10127965001), 20 mM in H2O. Assay buffer final concentration: 20 mM Tris pH7.4 with 0.002% Tween-20 and 0.02% BSA. Assay performed in 384 well solid bottom plate (Corning 3570). Enzymatic activity detected by NAD (P) H-Glo™ Detection System (Promega G9062).
Inhibitor compounds were serially diluted in DMSO and then further diluted in assay buffer to a 10× concentration consisting of 1% DMSO.
HSD17b13 enzyme was diluted in 1× assay buffer to the desired enzyme concentration based on the specific activity of the enzyme lot. 20 μL of diluted enzyme was added to each well along with 2.5 μL of 10× inhibitor solution. Assay plate was incubated at RT for 20 minutes, and then 2.5 μL of a 10× substrate/cofactor mix was added to each well for a final concentration of 50 μM estradiol and 1 mM NAD+. Assay plate was incubated at 37° C. for 3 hours. NAD (P) H-Glo™ Detection System reagents were prepared according to manufacturer's specifications, and 25 μL was added to each well. After incubating for 1 hour at RT, luminescence was measured.
One may read the IC50 as the concentration that gives 50% inhibition. With `Cn1nc(-c2cc(C(F)(F)F)c(F)c(O)c2F)c2cnc(N3CCOC(Cc4ccccc4)C3)nc21` (stereo not drawn) [Compound 5.02, 3-(6-(2-Benzylmorpholino)-1-methyl-1H-pyrazolo[3,4-d]pyrimidin-3-yl)-2,6-difluoro-5-(trifluoromethyl)phenol], the IC50 is not above 100 nM.

`Cn1nc(-c2cc(C(F)(F)F)c(F)c(O)c2F)c2cnc(N3CCOCC3Cc3ccccc3)nc21` (stereo not drawn) [Compound 5.03, 3-(6-(3-Benzylmorpholino)-1-methyl-1H-pyrazolo[3,4-d]pyrimidin-3-yl)-2,6-difluoro-5-(trifluoromethyl)phenol]: the IC50 was not above 100 nM.

As for `Cn1nc(-c2cc(C(F)(F)F)c(F)c(O)c2F)c2cnc(N3CCC(O)(Cn4cccn4)CC3)nc21` [Compound 5.04, 4-((1H-Pyrazol-1-yl)methyl)-1-(3-(2,4-difluoro-3-hydroxy-5-(trifluoromethyl)phenyl)-1-methyl-1H-pyrazolo[3,4-d]pyrimidin-6-yl)piperidin-4-ol], the IC50 is not above 100 nM.

`Cn1nc(-c2cc(C(F)(F)F)c(F)c(O)c2F)c2cnc(N3CCC(O)(CN4CCOCC4)CC3)nc21` [Compound 5.05, 1-(3-(2,4-Difluoro-3-hydroxy-5-(trifluoromethyl)phenyl)-1-methyl-1H-pyrazolo[3,4-d]pyrimidin-6-yl)-4-(morpholinomethyl)piperidin-4-ol]: the IC50 was 100 to 1000 nM.

Regarding `Cn1nc(-c2cc(C(F)(F)F)c(F)c(O)c2F)c2cnc(N3CCN(S(C)(=O)=O)C[C@@H]3Cc3ccccc3)nc21` [Compound 5.06, (S)-3-(6-(2-Benzyl-4-(methylsulfonyl)piperazin-1-yl)-1-methyl-1H-pyrazolo[3,4-d]pyrimidin-3-yl)-2,6-difluoro-5-(trifluoromethyl)phenol], the IC50 is not above 100 nM.

On to `CN1CCN(c2ncc3c(-c4cc(C(F)(F)F)c(F)c(O)c4F)nn(C)c3n2)CC1Cc1ccccc1` (stereo not drawn) [Compound 5.07, 3-(6-(3-Benzyl-4-methylpiperazin-1-yl)-1-methyl-1H-pyrazolo[3,4-d]pyrimidin-3-yl)-2,6-difluoro-5-(trifluoromethyl)phenol], for which the IC50 was not above 100 nM.

Consider `Cn1nc(-c2cc(C(F)(F)F)c(F)c(O)c2F)c2cnc(N3CCOC[C@H]3Cc3ccccc3)nc21` [Compound 5.08, (R)-3-(6-(3-Benzylmorpholino)-1-methyl-1H-pyrazolo[3,4-d]pyrimidin-3-yl)-2,6-difluoro-5-(trifluoromethyl)phenol], for which the IC50 was not above 100 nM.

On to `Cn1nc(-c2cc(C(F)(F)F)c(F)c(O)c2F)c2cnc(N3CCOC[C@@H]3Cc3ccccc3)nc21` [Compound 5.09, (S)-3-(6-(3-Benzylmorpholino)-1-methyl-1H-pyrazolo[3,4-d]pyrimidin-3-yl)-2,6-difluoro-5-(trifluoromethyl)phenol], for which the IC50 was not above 100 nM.

With `Cn1nc(-c2cc(C(F)(F)F)c(F)c(O)c2F)c2cnc(N3CCOCC3CC3CCC3)nc21` (stereo not drawn) [Compound 5.10, 3-(6-(3-(Cyclobutylmethyl)morpholino)-1-methyl-1H-pyrazolo[3,4-d]pyrimidin-3-yl)-2,6-difluoro-5-(trifluoromethyl)phenol], the IC50 is not above 100 nM.

Take `Cn1nc(-c2cc(C(F)(F)F)c(F)c(O)c2F)c2cnc(N3CCCCC3Cc3ccccn3)nc21` (stereo not drawn) [Compound 5.11, 2,6-Difluoro-3-(1-methyl-6-(2-(pyridin-2-ylmethyl)piperidin-1-yl)-1H-pyrazolo[3,4-d]pyrimidin-3-yl)-5-(trifluoromethyl)phenol]: the 50% inhibitory concentration (IC50) was not above 100 nM.

For the compound `CN1CCN(c2ncc3c(-c4cc(C(F)(F)F)c(F)c(O)c4F)nn(C)c3n2)C(Cc2ccccc2)C1` (stereo not drawn) [Compound 5.12, 3-(6-(2-Benzyl-4-methylpiperazin-1-yl)-1-methyl-1H-pyrazolo[3,4-d]pyrimidin-3-yl)-2,6-difluoro-5-(trifluoromethyl)phenol], the IC50 was not above 100 nM.

Consider `Cn1nc(-c2cc(C(F)(F)F)c(F)c(O)c2F)c2cnc(N3CCNC(=O)C3Cc3ccccc3)nc21` (stereo not drawn) [Compound 5.13, 3-Benzyl-4-(3-(2,4-difluoro-3-hydroxy-5-(trifluoromethyl)phenyl)-1-methyl-1H-pyrazolo[3,4-d]pyrimidin-6-yl)piperazin-2-one], for which the half-inhibitory concentration (IC50) is not above 100 nM.

Regarding `Cn1nc(-c2cc(C(F)(F)F)c(F)c(O)c2F)c2cnc(N3CCN(S(C)(=O)=O)[C@@H](Cc4ccccc4)C3)nc21` [Compound 5.14, (S)-3-(6-(3-Benzyl-4-(methylsulfonyl)piperazin-1-yl)-1-methyl-1H-pyrazolo[3,4-d]pyrimidin-3-yl)-2,6-difluoro-5-(trifluoromethyl)phenol], the IC50 is not above 100 nM.

For `Cn1nc(-c2cc(C(F)(F)F)c(F)c(O)c2F)c2cnc(N3CCN(S(C)(=O)=O)[C@H](Cc4ccccc4)C3)nc21` [Compound 5.15, (R)-3-(6-(3-Benzyl-4-(methylsulfonyl)piperazin-1-yl)-1-methyl-1H-pyrazolo[3,4-d]pyrimidin-3-yl)-2,6-difluoro-5-(trifluoromethyl)phenol], the IC50 was not above 100 nM.

On to `Cn1nc(-c2cc(C(F)(F)F)c(F)c(O)c2F)c2cnc(N3CCCC[C@H]3Cc3ccccc3)nc21` [Compound 5.16, (S)-3-(6-(2-Benzylpiperidin-1-yl)-1-methyl-1H-pyrazolo[3,4-d]pyrimidin-3-yl)-2,6-difluoro-5-(trifluoromethyl)phenol], for which the IC50 is not above 100 nM.

In the case of `Cn1nc(-c2cc(C(F)(F)F)c(F)c(O)c2F)c2cnc(N3CCC[C@H]3Cc3ccccc3)nc21` [Compound 5.17, (S)-3-(6-(2-Benzylpyrrolidin-1-yl)-1-methyl-1H-pyrazolo[3,4-d]pyrimidin-3-yl)-2,6-difluoro-5-(trifluoromethyl)phenol], the IC50 was not above 100 nM.

On to `CS(=O)(=O)N1CCN(c2ncc3c(-c4cc(C(F)(F)F)c(F)c(O)c4F)n[nH]c3n2)[C@H](Cc2ccccc2)C1` [Compound 5.18, (R)-3-(6-(2-Benzyl-4-(methylsulfonyl)piperazin-1-yl)-1H-pyrazolo[3,4-d]pyrimidin-3-yl)-2,6-difluoro-5-(trifluoromethyl)phenol], for which the IC50 is not above 100 nM.

Regarding `Cn1nc(-c2cc(C(F)(F)F)c(F)c(O)c2F)c2cnc(N3CCC3Cc3ccccc3)nc21` (stereo not drawn) [Compound 5.19, 3-(6-(2-Benzylazetidin-1-yl)-1-methyl-1H-pyrazolo[3,4-d]pyrimidin-3-yl)-2,6-difluoro-5-(trifluoromethyl)phenol], the IC50 was not above 100 nM.

In the case of `Oc1c(F)c(-c2n[nH]c3nc(N4CCOC[C@H]4Cc4ccccc4)ncc23)cc(C(F)(F)F)c1F` [Compound 5.20, (R)-3-(6-(3-Benzylmorpholino)-1H-pyrazolo[3,4-d]pyrimidin-3-yl)-2,6-difluoro-5-(trifluoromethyl)phenol], the IC50 was not above 100 nM.

For `Cc1ccc(C[C@@H]2COCCN2c2ncc3c(-c4cc(C(F)(F)F)c(F)c(O)c4F)nn(C)c3n2)cc1` [Compound 5.21, (R)-2,6-Difluoro-3-(1-methyl-6-(3-(4-methylbenzyl)morpholino)-1H-pyrazolo[3,4-d]pyrimidin-3-yl)-5-(trifluoromethyl)phenol], the IC50 is not above 100 nM.

As for `CS(=O)(=O)N1CCN(c2ncc3c(-c4cc(C(F)(F)F)c(F)c(O)c4F)n[nH]c3n2)C[C@@H]1Cc1ccccc1` [Compound 5.22, (S)-3-(6-(3-Benzyl-4-(methylsulfonyl)piperazin-1-yl)-1H-pyrazolo[3,4-d]pyrimidin-3-yl)-2,6-difluoro-5-(trifluoromethyl)phenol], the IC50 was not above 100 nM.
